Results as given in the supplement of paper PMC11451515.

System: SEM cells
Assay: cell viability relative to DMSO control; higher = less cytotoxic
Settings: 48 h
Outline: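 NOMO1 or SEM (500 cells/well) or P12-Ichikawa (1000 cells/well) leukemia cells were adapted for at least four passages in each medium. They were seeded in 1536-well plates (5 μl) and pin-dosed with library compounds in DMSO over an 11-point threefold series, 47 μM to 0.79 nM. CellTiter-Glo One luminescence was read after 48 h at 37°C. Viability is the per-plate percentage relative to DMSO wells, with cell-free wells as background.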

[1] = HPLM + 10% dialyzed FBS, 0.000781 µM
[2] = HPLM + 10% dialyzed FBS, 0.00234 µM
[3] = HPLM + 10% dialyzed FBS, 0.00702 µM
[4] = HPLM + 10% dialyzed FBS, 0.0211 µM
[5] = HPLM + 10% dialyzed FBS, 0.0632 µM
[6] = HPLM + 10% dialyzed FBS, 0.19 µM
[7] = HPLM + 10% dialyzed FBS, 0.569 µM
[8] = HPLM + 10% dialyzed FBS, 1.71 µM
[9] = HPLM + 10% dialyzed FBS, 5.12 µM
[10] = HPLM + 10% dialyzed FBS, 15.4 µM
[11] = HPLM + 10% dialyzed FBS, 46.1 µM
[12] = RPMI 5 mM glucose + 10% FBS, 0.000781 µM
[13] = RPMI 5 mM glucose + 10% FBS, 0.00234 µM
[14] = RPMI 5 mM glucose + 10% FBS, 0.00702 µM
[15] = RPMI 5 mM glucose + 10% FBS, 0.0211 µM
[16] = RPMI 5 mM glucose + 10% FBS, 0.0632 µM
[17] = RPMI 5 mM glucose + 10% FBS, 0.19 µM
[18] = RPMI 5 mM glucose + 10% FBS, 0.569 µM
[19] = RPMI 5 mM glucose + 10% FBS, 1.71 µM
[20] = RPMI 5 mM glucose + 10% FBS, 5.12 µM
[21] = RPMI 5 mM glucose + 10% FBS, 15.4 µM
[22] = RPMI 5 mM glucose + 10% FBS, 46.1 µM
[23] = RPMI 5 mM glucose + 10% dialyzed FBS, 0.000781 µM
[24] = RPMI 5 mM glucose + 10% dialyzed FBS, 0.00234 µM
[25] = RPMI 5 mM glucose + 10% dialyzed FBS, 0.00702 µM
[26] = RPMI 5 mM glucose + 10% dialyzed FBS, 0.0211 µM
[27] = RPMI 5 mM glucose + 10% dialyzed FBS, 0.0632 µM
[28] = RPMI 5 mM glucose + 10% dialyzed FBS, 0.19 µM
[29] = RPMI 5 mM glucose + 10% dialyzed FBS, 0.569 µM
[30] = RPMI 5 mM glucose + 10% dialyzed FBS, 1.71 µM
[31] = RPMI 5 mM glucose + 10% dialyzed FBS, 5.12 µM
[32] = RPMI 5 mM glucose + 10% dialyzed FBS, 15.4 µM
[33] = RPMI 5 mM glucose + 10% dialyzed FBS, 46.1 µM

Compound	cell viability [1] [%]	cell viability [2] [%]	cell viability [3] [%]	cell viability [4] [%]	cell viability [5] [%]	cell viability [6] [%]	cell viability [7] [%]	cell viability [8] [%]	cell viability [9] [%]	cell viability [10] [%]	cell viability [11] [%]	cell viability [12] [%]	cell viability [13] [%]	cell viability [14] [%]	cell viability [15] [%]	cell viability [16] [%]	cell viability [17] [%]	cell viability [18] [%]	cell viability [19] [%]	cell viability [20] [%]	cell viability [21] [%]	cell viability [22] [%]	cell viability [23] [%]	cell viability [24] [%]	cell viability [25] [%]	cell viability [26] [%]	cell viability [27] [%]	cell viability [28] [%]	cell viability [29] [%]	cell viability [30] [%]	cell viability [31] [%]	cell viability [32] [%]	cell viability [33] [%]
C[C@@]12C(=O)OC(=O)[C@@]1(C)C1CCC2O1	118	103	112	112	114	107	112	95.1	87.1	6.65	4.55	105	113	112	112	112	110	124	104	73.1	5.81	4.32	120	116	110	124	120	113	114	96.8	58.2	6.57	4.36
CC1=C(C)C(=O)C(C(CCCCCC(=O)O)c2ccccc2)=C(C)C1=O (stereo unspecified)	63.6	70.7	56.2	69.2	65.6	78.1	71.6	64.6	59.7	44.7	41	77.4	92	73.4	79.9	75.1	77.4	59	57.3	35.1	26.7	31.9	54.8	74.5	57.1	69.9	75.2	97.2	58.6	76.6	46.5	48.6	24.9
OC(c1cc(C(F)(F)F)nc2c(C(F)(F)F)cccc12)C1CCCCN1 (stereo unspecified)	103	115	109	116	117	139	91.8	54.7	126	132	7.71	117	118	131	149	133	138	93.9	63.4	132	114	9.68	117	130	122	136	135	129	81.2	47.8	137	130	10.3
CN(C)[S+](=O)([O-])c1ccc2c(c1)C(=Cc1cc3c([nH]1)CCCC3)C(=O)N2	112	115	112	114	128	129	130	116	114	85.7	111	90.5	98.6	109	103	118	113	118	113	112	78.5	94.7	116	115	127	120	120	108	132	123	113	72.9	116
CC1(C)O[C@@H]2C[C@H]3[C@@H]4C[C@H](F)C5=CC(=O)C=C[C@]5(C)[C@@]4(F)[C@@H](O)C[C@]3(C)[C@]2(C(=O)CO)O1	97.9	98.7	91.3	83.5	58.3	51.5	41	44.9	43.8	54.4	45.4	98.3	120	87.1	82.6	65.5	63.2	63.4	49.5	51.1	56.1	53.7	116	109	98.4	91.3	59.6	55.2	39.1	51.7	47.8	44.6	49.2
C[C@H]1C[C@@H]2[C@H](CC[C@@]3(C)[C@H]2CC[C@]3(OC(C)=O)C(C)=O)[C@@]\4(C)CCC(=O)\C=C14	64.9	101	79.8	87	88.5	85.1	92.9	87.6	85.3	88.9	101	75	89.9	97.5	92.2	105	96.2	84.5	96.7	91.6	80.8	85.9	75.4	96	77.3	105	101	94.2	78.7	94.1	88	80.1	88.9
CC[C@H](NC1=C2N=C[NH]C2=NC=N1)C/3=N/C4=C(C(=CC=C4)F)C(=O)N3C5=CC=CC=C5	94.9	118	133	120	114	97.2	87.4	106	81.7	73.6	52.1	79.2	94.8	112	105	111	108	88.2	88.9	84.5	57.6	53.1	90.2	110	132	120	116	84.2	116	110	92.8	80.1	57.3
